ChEMBL document CHEMBL5257091, “Hydrazinecarbonyl-thiazol-2-acetamides with pronounced apoptotic behavior: synthesis, in vitro/in vivo anti-proliferative activity and molecular modeling simulations” (Bioorg Med Chem Lett, 2023)

Tests used:
[1] = Selectivity index, ratio of IC50 for cytotoxicity against human WI-38 cells to IC50 for antiproliferative activity against human MCF7 cells; type: toxicity, cell-based; conditions: WI-38 cells and MCF7 cells, read-out: Ratio IC50
Dihydrofolate reductase = target: T1, Dihydrofolate reductase (Homo sapiens, UniProt P00374); experiment: Inhibition of DHFR (unknown origin) incubated for 2 to 5 mins by absorbance based analysis
T1 sequence (P00374 whole entry): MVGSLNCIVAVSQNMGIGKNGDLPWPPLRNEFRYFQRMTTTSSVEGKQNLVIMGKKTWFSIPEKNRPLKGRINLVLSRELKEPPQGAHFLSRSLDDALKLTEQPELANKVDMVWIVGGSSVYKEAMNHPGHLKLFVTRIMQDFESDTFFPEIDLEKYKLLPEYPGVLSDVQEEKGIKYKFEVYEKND

[2] = Toxicity in Swiss albino mouse implanted with mouse Ehrlich cells assessed as mean body weight at 10 mg/kg, iv administered once daily for 20 days (reference value: 30 g); type: organism-based; conditions: in vivo, 480 h, time 20 day
HeLa [3] = experiment: Induction of cell cycle arrest in human HeLa cells assessed as accumulation of cells at pre-G1 phase incubated for 24 hrs by PI staining based flow cytometry analysis (reference value: 1.85%); type: functional
MCF7 [4] = experiment: Induction of apoptosis in human MCF7 cells assessed as early apoptotic cells incubated for 24 hrs by annexin V-FITC/PI staining based flow cytometry analysis (reference value: 0.62%); type: functional
MCF7 [5] = experiment: Induction of cell cycle arrest in human MCF7 cells assessed as accumulation of cells at G0/G1 phase incubated for 24 hrs by PI staining based flow cytometry analysis (reference value: 52.61%); type: functional
[6] = Selectivity index, ratio of IC50 for cytotoxicity against human WI-38 cells to IC50 for antiproliferative activity against human HepG2 cells; type: toxicity, cell-based; conditions: WI-38 cells and HepG2 cells, read-out: Ratio IC50
HeLa [7] = experiment: Antiproliferative activity against human HeLa cells assessed as inhibition of cell growth incubated for 24 hrs by MTT assay; type: functional, cell-based
PC-3 = experiment: Antiproliferative activity against human PC-3 cells assessed as inhibition of cell growth incubated for 24 hrs by MTT assay; type: functional, cell-based; conditions: PC-3, 24 h
HeLa [8] = experiment: Induction of apoptosis in human HeLa cells assessed as total apoptotic cells incubated for 24 hrs by annexin V-FITC/PI staining based flow cytometry analysis (reference value: 1.85%); type: functional
[9] = Selectivity index, ratio of IC50 for cytotoxicity against human WI-38 cells to IC50 for antiproliferative activity against human HEp-2 cells; type: toxicity, cell-based; conditions: WI-38 cells and HEp-2 cells, read-out: Ratio IC50
MCF7 [10] = experiment: Induction of apoptosis in human MCF7 cells assessed as late apoptotic cells incubated for 24 hrs by annexin V-FITC/PI staining based flow cytometry analysis (reference value: 0.21%); type: functional
MCF7 [11] = experiment: Induction of apoptosis in human MCF7 cells assessed as total apoptotic cells incubated for 24 hrs by annexin V-FITC/PI staining based flow cytometry analysis (reference value: 2.11%); type: functional
HeLa [12] = experiment: Induction of cell cycle arrest in human HeLa cells assessed as accumulation of cells at S phase incubated for 24 hrs by PI staining based flow cytometry analysis (reference value: 28.54%); type: functional
HCT-116 = experiment: cells; conditions: Homo sapiens, HCT-116, 24 h
Description: Antiproliferative activity against human HCT-116 cells assessed as inhibition of cell growth incubated for 24 hrs by MTT assay

HeLa [13] = experiment: Induction of cell cycle arrest in human HeLa cells assessed as cell aggregates incubated for 24 hrs by PI staining based flow cytometry analysis (reference value: 1.46%); type: functional
Ehrlich = experiment: Antitumor activity against mouse Ehrlich cells implanted in Swiss albino mouse assessed as reduction in tumor volume at 10 mg/kg, iv administered once daily for 20 days relative to control; type: functional; set-up: scale not given: the % may be the effect or the level left; conditions: time 20 day
MCF7 [14] = experiment: Antiproliferative activity against human MCF7 cells assessed as inhibition of cell growth incubated for 24 hrs by MTT assay; type: functional, cell-based; conditions: MCF7, 24 h
MCF7 [15] = experiment: Induction of cell cycle arrest in human MCF7 cells assessed as accumulation of cells at G2/M phase incubated for 24 hrs by PI staining based flow cytometry analysis (reference value: 12.2%); type: functional
[16] = Selectivity index, ratio of IC50 for cytotoxicity against human WI-38 cells to IC50 for antiproliferative activity against human PC-3 cells; type: toxicity, cell-based; conditions: WI-38 cells and PC-3 cells, read-out: Ratio IC50
[17] = Selectivity index, ratio of IC50 for cytotoxicity against human WI-38 cells to IC50 for antiproliferative activity against human HCT-116 cells; type: toxicity, cell-based; conditions: WI-38 cells and HCT-116 cells, read-out: Ratio IC50
[18] = Toxicity in Swiss albino mouse implanted with mouse Ehrlich cells assessed as reduction in body weight gain at 10 mg/kg, iv administered once daily for 20 days relative to control; type: organism-based; set-up: scale not given: the % may be the effect or the level left; conditions: in vivo, 480 h, time 20 day
HeLa [19] = experiment: Induction of cell cycle arrest in human HeLa cells assessed as accumulation of cells at G0/G1 phase incubated for 24 hrs by PI staining based flow cytometry analysis (reference value: 61.08%); type: functional
MCF7 [20] = experiment: Induction of cell cycle arrest in human MCF7 cells assessed as accumulation of cells at S phase incubated for 24 hrs by PI staining based flow cytometry analysis (reference value: 35.19%); type: functional
HepG2 = experiment: Antiproliferative activity against human HepG2 cells assessed as inhibition of cell growth incubated for 24 hrs by MTT assay; type: functional, cell-based; conditions: HepG2, 24 h
HeLa [21] = experiment: Induction of cell cycle arrest in human HeLa cells assessed as cell debris incubated for 24 hrs by PI staining based flow cytometry analysis (reference value: 2.13%); type: functional
MCF7 [22] = experiment: Induction of cell cycle arrest in human MCF7 cells assessed as cell debris incubated for 24 hrs by PI staining based flow cytometry analysis (reference value: 2.12%); type: functional
HeLa [23] = experiment: Induction of apoptosis in human HeLa cells assessed as early apoptotic cells incubated for 24 hrs by annexin V-FITC/PI staining based flow cytometry analysis (reference value: 0.54%); type: functional
MCF7 [24] = experiment: Induction of cell cycle arrest in human MCF7 cells assessed as accumulation of cells at pre-G1 phase incubated for 24 hrs by PI staining based flow cytometry analysis (reference value: 2.11%); type: functional
MCF7 [25] = experiment: Induction of cell cycle arrest in human MCF7 cells assessed as cell aggregates incubated for 24 hrs by PI staining based flow cytometry analysis (reference value: 1.75%); type: functional
HEp-2 = experiment: Antiproliferative activity against human HEp-2 cells assessed as inhibition of cell growth incubated for 24 hrs by MTT assay; type: functional, cell-based; conditions: HEp-2, 24 h
HeLa [26] = experiment: Induction of cell cycle arrest in human HeLa cells assessed as accumulation of cells at G2/M phase incubated for 24 hrs by PI staining based flow cytometry analysis (reference value: 10.38%); type: functional
MCF7 [27] = experiment: Induction of apoptosis in human MCF7 cells assessed as necrotic cells incubated for 24 hrs by annexin V-FITC/PI staining based flow cytometry analysis (reference value: 1.28%); type: functional
[28] = Selectivity index, ratio of IC50 for cytotoxicity against human WI-38 cells to IC50 for antiproliferative activity against human HeLa cells; type: toxicity, cell-based; conditions: WI-38 cells and HeLa cells, read-out: Ratio IC50
[29] = Cytotoxicity against human WI-38 cells assessed as inhibition of cell growth incubated for 24 hrs by MTT assay; type: toxicity, cell-based
HeLa [30] = experiment: Induction of apoptosis in human HeLa cells assessed as necrotic cells incubated for 24 hrs by annexin V-FITC/PI staining based flow cytometry analysis (reference value: 1.15%); type: functional
HeLa [31] = experiment: Induction of apoptosis in human HeLa cells assessed as late apoptotic cells incubated for 24 hrs by annexin V-FITC/PI staining based flow cytometry analysis (reference value: 0.16%); type: functional
[32] = target: Epidermal growth factor receptor (Homo sapiens, UniProt P00533); experiment: Inhibition of EGFR (unknown origin) by fluorimetric assay
Chain of Epidermal growth factor receptor (P00533 whole entry): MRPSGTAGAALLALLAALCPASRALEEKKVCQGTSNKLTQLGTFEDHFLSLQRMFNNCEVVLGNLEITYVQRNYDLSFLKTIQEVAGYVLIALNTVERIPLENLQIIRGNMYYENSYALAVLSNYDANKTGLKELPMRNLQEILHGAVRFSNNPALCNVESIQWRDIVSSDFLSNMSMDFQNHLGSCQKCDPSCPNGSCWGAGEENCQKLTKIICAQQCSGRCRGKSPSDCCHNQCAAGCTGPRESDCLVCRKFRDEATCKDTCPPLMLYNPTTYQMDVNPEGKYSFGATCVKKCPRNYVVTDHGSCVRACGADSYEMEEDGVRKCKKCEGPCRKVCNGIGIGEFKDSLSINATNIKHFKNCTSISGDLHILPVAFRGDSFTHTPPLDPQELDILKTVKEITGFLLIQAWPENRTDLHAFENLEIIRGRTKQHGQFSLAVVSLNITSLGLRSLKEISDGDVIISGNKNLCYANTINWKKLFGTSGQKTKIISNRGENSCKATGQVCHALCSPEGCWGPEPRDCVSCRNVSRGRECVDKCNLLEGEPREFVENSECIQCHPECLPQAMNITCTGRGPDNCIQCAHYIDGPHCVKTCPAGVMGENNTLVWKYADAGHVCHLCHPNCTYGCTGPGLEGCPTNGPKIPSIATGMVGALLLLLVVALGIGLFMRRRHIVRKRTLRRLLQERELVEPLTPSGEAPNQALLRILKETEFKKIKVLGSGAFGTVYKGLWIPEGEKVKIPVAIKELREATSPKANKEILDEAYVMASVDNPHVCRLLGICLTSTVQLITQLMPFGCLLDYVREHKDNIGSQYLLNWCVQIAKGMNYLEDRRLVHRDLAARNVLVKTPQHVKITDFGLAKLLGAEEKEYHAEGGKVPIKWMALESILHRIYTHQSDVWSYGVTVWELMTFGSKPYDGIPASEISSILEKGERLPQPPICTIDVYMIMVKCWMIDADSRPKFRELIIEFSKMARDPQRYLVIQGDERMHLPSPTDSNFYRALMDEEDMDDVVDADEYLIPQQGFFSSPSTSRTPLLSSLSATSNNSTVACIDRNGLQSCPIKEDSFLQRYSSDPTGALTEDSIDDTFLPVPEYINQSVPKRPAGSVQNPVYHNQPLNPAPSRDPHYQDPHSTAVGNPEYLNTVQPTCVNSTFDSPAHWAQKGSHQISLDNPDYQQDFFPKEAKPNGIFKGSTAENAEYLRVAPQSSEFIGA

With CC(=O)Nc1nc(C(=O)NNC(=O)CCN2CCCCC2)cs1 as the compound, how does the selectivity ratio [1] read?
The selectivity ratio was 8.19.

And the IC50 (Dihydrofolate reductase)?
The IC50 was 0.262 µM.

What about the Activity [2] of the same compound?
The Activity was 29.4 g.

And the Activity (HeLa [3])?
The Activity was 45.81%.

And the Activity (MCF7 [4])?
Its Activity is 8.31%.

And the Activity (MCF7 [5])?
The Activity was 57.43%.

And the selectivity ratio [6]?
The selectivity ratio was 6.43.

And the IC50 (HeLa [7])?
The IC50 was 1.67 µM.

What about the IC50 (PC-3) of the same compound?
The IC50 was 8.14 µM.

What about the Activity (HeLa [8]) of the same compound?
Its Activity is 45.81%.

What about the selectivity ratio [9] of the same compound?
Its selectivity ratio is 5.24.

What about the Activity (MCF7 [10]) of the same compound?
The Activity was 22.72%.

And the Activity (MCF7 [11])?
The Activity was 36.22%.

And the Activity (HeLa [12])?
The Activity was 44.39%.

What about the IC50 (HCT-116) of the same compound?
The IC50 was 11.8 µM.

What about the Activity (HeLa [13]) of the same compound?
Its Activity is 1.55%.

And the Activity (Ehrlich)?
Its Activity is 72.3%.

What about the IC50 (MCF7 [14]) of the same compound?
The IC50 was 4.87 µM.

What about the Activity (MCF7 [15]) of the same compound?
Its Activity is 3.91%.

And the selectivity ratio [16]?
Its selectivity ratio is 4.9.

What about the selectivity ratio [17] of the same compound?
The selectivity ratio was 3.37.

What about the Activity [18] of the same compound?
Its Activity is 18.3%.

What about the Activity (HeLa [19]) of the same compound?
The Activity was 52.72%.

What about the Activity (MCF7 [20]) of the same compound?
The Activity was 38.66%.

What about the IC50 (HepG2) of the same compound?
The IC50 was 6.21 µM.

And the Activity (HeLa [21])?
Its Activity is 2.19%.

What about the Activity (MCF7 [22]) of the same compound?
The Activity was 1.46%.

And the Activity (HeLa [23])?
Its Activity is 14.01%.

What about the Activity (MCF7 [24]) of the same compound?
Its Activity is 36.22%.

And the Activity (MCF7 [25])?
Its Activity is 2.19%.

What about the IC50 (HEp-2) of the same compound?
Its IC50 is 7.62 µM.

And the Activity (HeLa [26])?
Its Activity is 2.89%.

What about the Activity (MCF7 [27]) of the same compound?
The Activity was 5.19%.

What about the selectivity ratio [28] of the same compound?
The selectivity ratio was 23.9.

What about the IC50 at 24 h [29] of the same compound?
The IC50 at 24 h was 39.9 µM.

And the Activity (HeLa [30])?
The Activity was 7.41%.

What about the Activity (HeLa [31]) of the same compound?
Its Activity is 24.39%.

And the IC50 [32]?
Its IC50 is 9.2 µM.
